Reference: patent US9340590B2 (priority 2011, dated 2016)
Positions of bridges follow the written chain, without caps; N, C: chain ends. Non-standard residues stand in square brackets, D forms with d. Residues, ends and D or L forms follow the SMILES beside them. *: point of attachment. Pent4ynoyl = C#CCCC(=O)*; Nva = CCC[C@H](N)C(=O)O; Abu = CC[C@H](N)C(=O)O

Legend:
Assay in all cases: cell-based
hNav1.3 = hNav1.3 (Homo sapiens, UniProt Q9NY46); conditions: IonWorks Quattro, use-dependent block, hNav1.3; read-out: IWQ Use Nav1.3
Sequence of hNav1.3 (Q9NY46 whole entry, looked up): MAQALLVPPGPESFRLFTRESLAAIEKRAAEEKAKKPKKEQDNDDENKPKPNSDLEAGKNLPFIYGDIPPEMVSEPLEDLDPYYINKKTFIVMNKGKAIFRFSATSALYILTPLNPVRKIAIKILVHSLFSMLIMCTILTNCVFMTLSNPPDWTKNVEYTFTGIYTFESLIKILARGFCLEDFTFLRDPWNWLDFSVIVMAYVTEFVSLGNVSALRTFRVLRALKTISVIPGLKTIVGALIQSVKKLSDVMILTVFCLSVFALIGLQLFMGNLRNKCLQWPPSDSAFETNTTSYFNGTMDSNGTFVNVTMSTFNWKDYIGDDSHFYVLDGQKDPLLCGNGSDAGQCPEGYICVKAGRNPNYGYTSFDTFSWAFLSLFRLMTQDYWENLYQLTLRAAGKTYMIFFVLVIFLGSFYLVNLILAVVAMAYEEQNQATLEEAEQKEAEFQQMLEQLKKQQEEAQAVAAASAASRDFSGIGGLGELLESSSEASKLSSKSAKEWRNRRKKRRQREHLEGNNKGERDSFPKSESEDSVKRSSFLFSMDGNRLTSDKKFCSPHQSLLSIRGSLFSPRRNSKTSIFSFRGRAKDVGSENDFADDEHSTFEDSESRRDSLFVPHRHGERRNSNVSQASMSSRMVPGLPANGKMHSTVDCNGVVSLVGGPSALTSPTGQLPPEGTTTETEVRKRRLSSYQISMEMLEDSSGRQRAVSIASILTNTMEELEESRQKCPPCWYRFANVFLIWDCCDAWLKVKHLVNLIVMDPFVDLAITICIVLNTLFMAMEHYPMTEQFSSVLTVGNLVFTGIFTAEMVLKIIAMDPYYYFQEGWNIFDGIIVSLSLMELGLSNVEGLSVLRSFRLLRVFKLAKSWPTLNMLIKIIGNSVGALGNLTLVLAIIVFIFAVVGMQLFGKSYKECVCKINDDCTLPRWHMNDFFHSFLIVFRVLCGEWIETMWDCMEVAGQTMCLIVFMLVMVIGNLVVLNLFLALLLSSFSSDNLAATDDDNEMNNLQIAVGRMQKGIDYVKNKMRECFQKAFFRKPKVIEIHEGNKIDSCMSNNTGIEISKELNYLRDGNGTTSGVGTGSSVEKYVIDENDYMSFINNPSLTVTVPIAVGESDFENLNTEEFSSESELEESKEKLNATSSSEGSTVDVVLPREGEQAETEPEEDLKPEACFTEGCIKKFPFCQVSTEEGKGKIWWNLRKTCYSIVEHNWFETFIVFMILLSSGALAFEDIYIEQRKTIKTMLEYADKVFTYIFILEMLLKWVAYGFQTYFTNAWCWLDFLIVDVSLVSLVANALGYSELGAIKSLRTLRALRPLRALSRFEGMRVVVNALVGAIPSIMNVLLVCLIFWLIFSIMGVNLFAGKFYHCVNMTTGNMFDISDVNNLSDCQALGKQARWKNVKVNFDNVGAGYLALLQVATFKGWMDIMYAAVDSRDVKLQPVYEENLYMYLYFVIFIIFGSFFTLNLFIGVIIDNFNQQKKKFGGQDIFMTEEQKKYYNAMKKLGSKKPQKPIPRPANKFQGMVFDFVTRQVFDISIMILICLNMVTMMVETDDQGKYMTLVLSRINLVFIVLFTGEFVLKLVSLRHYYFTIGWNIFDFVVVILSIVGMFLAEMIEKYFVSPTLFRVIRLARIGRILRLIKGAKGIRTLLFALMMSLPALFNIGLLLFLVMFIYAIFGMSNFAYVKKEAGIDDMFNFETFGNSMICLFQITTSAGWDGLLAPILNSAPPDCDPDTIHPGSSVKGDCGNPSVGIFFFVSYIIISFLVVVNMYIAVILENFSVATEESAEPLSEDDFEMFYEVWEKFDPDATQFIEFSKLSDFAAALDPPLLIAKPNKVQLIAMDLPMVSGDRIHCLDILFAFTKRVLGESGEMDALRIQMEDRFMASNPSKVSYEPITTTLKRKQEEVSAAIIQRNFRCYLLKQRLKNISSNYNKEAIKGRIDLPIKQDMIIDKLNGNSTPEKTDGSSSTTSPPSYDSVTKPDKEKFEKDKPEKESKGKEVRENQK

hNav1.7 = hNav1.7 (Homo sapiens, UniProt Q15858); type: cell-based; conditions: IonWorks Quattro, use-dependent block, hNav1.7; read-out: IWQ Use Nav1.7
hNav1.5 = hNav1.5 (Homo sapiens, UniProt Q14524); conditions: IonWorks Quattro, use-dependent block, hNav1.5; read-out: IWQ Use Nav1.5
Sequence of hNav1.5 (Q14524 whole entry, looked up): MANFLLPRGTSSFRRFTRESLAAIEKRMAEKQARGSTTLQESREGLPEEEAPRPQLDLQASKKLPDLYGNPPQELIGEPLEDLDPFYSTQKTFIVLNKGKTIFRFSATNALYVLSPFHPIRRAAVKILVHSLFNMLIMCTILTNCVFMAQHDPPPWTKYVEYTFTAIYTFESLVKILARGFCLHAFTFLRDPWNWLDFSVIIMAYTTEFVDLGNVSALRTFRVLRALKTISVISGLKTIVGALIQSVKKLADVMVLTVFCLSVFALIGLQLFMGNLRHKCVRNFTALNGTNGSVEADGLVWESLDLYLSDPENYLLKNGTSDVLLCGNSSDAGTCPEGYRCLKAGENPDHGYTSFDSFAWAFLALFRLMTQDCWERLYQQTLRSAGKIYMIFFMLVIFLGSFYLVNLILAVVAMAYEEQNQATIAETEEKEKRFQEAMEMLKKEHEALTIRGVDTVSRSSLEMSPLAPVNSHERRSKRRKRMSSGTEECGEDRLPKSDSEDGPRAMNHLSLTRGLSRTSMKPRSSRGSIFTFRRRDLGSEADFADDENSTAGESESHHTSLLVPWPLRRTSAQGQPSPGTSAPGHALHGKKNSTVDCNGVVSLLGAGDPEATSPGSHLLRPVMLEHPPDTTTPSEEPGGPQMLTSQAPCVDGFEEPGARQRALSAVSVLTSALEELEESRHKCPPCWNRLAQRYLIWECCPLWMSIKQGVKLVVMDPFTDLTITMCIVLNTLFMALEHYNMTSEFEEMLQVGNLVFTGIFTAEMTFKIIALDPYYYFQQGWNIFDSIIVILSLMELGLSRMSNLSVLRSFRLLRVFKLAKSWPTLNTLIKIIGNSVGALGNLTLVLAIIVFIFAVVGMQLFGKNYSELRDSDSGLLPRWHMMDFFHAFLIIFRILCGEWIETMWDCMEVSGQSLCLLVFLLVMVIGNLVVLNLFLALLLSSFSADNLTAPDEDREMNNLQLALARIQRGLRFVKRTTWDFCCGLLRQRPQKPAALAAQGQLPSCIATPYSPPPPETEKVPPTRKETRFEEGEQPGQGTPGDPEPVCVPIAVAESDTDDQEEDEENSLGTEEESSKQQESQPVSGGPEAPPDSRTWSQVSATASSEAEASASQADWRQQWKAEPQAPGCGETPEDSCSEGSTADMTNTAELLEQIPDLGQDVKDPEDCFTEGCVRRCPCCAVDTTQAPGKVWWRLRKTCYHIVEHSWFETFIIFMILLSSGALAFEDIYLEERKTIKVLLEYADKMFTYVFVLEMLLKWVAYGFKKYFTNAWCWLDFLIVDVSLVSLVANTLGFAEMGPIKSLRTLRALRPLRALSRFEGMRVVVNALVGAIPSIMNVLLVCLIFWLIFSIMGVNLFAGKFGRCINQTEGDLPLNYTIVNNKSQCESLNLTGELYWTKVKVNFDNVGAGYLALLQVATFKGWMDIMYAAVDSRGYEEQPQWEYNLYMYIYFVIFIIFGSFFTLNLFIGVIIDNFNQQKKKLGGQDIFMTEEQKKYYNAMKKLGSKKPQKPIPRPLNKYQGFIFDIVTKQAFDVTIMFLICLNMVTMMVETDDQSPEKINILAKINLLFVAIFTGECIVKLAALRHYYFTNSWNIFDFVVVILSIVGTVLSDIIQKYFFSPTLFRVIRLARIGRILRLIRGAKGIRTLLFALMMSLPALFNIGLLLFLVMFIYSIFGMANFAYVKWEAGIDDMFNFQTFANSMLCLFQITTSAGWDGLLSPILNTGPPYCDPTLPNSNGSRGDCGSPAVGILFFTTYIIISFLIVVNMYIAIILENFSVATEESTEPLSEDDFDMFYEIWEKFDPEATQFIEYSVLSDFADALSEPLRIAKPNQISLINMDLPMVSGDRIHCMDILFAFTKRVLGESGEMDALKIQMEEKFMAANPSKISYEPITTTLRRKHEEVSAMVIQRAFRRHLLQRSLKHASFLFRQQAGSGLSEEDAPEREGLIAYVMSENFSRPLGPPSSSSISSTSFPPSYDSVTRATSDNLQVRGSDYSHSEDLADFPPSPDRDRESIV

Compound | IC50 (hNav1.3) | IC50 (hNav1.7) | IC50 (hNav1.5)
C#CCCC(=O)NCCCC[C@@H]1NC(=O)[C@H](CC(=O)O)NC(=O)[C@@H]2CCCN2C(=O)[C@H]([C@@H](C)CC)NC(=O)[C@@H]2CSSC[C@@H]3NC(=O)[C@H](C(C)C)NC(=O)[C@H](CC(C)C)NC(=O)[C@H](CC(N)=O)NC(=O)[C@@H]4CCCN4C(=O)[C@H](CCCNC(=N)N)NC(=O)[C@H](CSSC[C@H](NC(=O)[C@@H](N)CC(=O)O)C(=O)N[C@@H](CC(C)C)C(=O)NCC(=O)N[C@@H](CC)C(=O)N[C@@H](Cc4ccccc4)C(=O)N[C@@H](CCCNC(=N)N)C(=O)N[C@@H](CCCCN)C(=O)N2)NC(=O)[C@H](CSSC[C@@H](C(=O)N[C@@H](CCCCN)C(=O)N[C@@H](Cc2ccc(O)cc2)C(=O)N[C@H](C(=O)N[C@@H](Cc2ccccc2)C(N)=O)C(C)C)NC(=O)[C@H](Cc2c[nH]c4ccccc24)NC(=O)[C@H](CCCCN)NC(=O)[C@H](Cc2c[nH]cn2)NC(=O)[C@H]([C@@H](C)O)NC(=O)[C@H](CCCNC(=N)N)NC(=O)[C@H](CO)NC3=O)NC(=O)[C@H](CCCCN)NC(=O)[C@H](CC(=O)O)NC1=O [compound 804] (H-DCLG[Abu]FRKCIPDK(Pent4ynoyl)DKCCRPNLVCSRTHKWCKYVF-NH2; disulfide 2-17, 9-23, 16-30) | 350 nM | 500 nM | > 50000 nM
C#CCCC(=O)NCCCC[C@@H]1NC(=O)[C@H](CC(=O)O)NC(=O)[C@@H]2CCCN2C(=O)[C@H]([C@@H](C)CC)NC(=O)[C@@H]2CSSC[C@@H]3NC(=O)[C@H](C(C)C)NC(=O)[C@H](CC(C)C)NC(=O)[C@H](CC(N)=O)NC(=O)[C@@H]4CCCN4C(=O)[C@H](CCCNC(=N)N)NC(=O)[C@H](CSSC[C@H](NC(=O)[C@@H](N)CC(=O)O)C(=O)N[C@@H](CC(C)C)C(=O)NCC(=O)N[C@@H](CCC)C(=O)N[C@@H](CC(C)C)C(=O)N[C@@H](CCCNC(=N)N)C(=O)N[C@@H](CCCCN)C(=O)N2)NC(=O)[C@H](CSSC[C@@H](C(=O)N[C@@H](CCCCN)C(=O)N[C@@H](Cc2ccc(O)cc2)C(=O)N[C@H](C(=O)N[C@@H](Cc2ccccc2)C(N)=O)C(C)C)NC(=O)[C@H](Cc2c[nH]c4ccccc24)NC(=O)[C@H](CCCNC(=N)N)NC(=O)[C@H](Cc2c[nH]cn2)NC(=O)[C@H]([C@@H](C)O)NC(=O)[C@H](CCCNC(=N)N)NC(=O)[C@H](CO)NC3=O)NC(=O)[C@H](CCCCN)NC(=O)[C@H](CC(=O)O)NC1=O [compound 805] (H-DCLG[Nva]LRKCIPDK(Pent4ynoyl)DKCCRPNLVCSRTHRWCKYVF-NH2; disulfide 2-17, 9-23, 16-30) | 270 nM | 310 nM | 37500 nM
C#CCCC(=O)NCCCC[C@@H]1NC(=O)[C@H](CC(=O)O)NC(=O)[C@@H]2CCCN2C(=O)[C@H]([C@@H](C)CC)NC(=O)[C@@H]2CSSC[C@@H]3NC(=O)[C@H](C(C)C)NC(=O)[C@H](CC(C)C)NC(=O)[C@H](CC(N)=O)NC(=O)[C@@H]4CCCN4C(=O)[C@H](CCCNC(=N)N)NC(=O)[C@H](CSSC[C@H](NC(=O)[C@@H](N)CC(=O)O)C(=O)N[C@@H](CC(C)C)C(=O)NCC(=O)N[C@@H](CCC)C(=O)N[C@@H](CC(C)C)C(=O)N[C@@H](CCCNC(=N)N)C(=O)N[C@@H](CCCCN)C(=O)N2)NC(=O)[C@H](CSSC[C@@H](C(=O)N[C@@H](CCCCN)C(=O)N[C@@H](Cc2ccc(O)cc2)C(=O)N[C@H](C(=O)N[C@@H](Cc2ccccc2)C(N)=O)C(C)C)NC(=O)[C@H](Cc2c[nH]c4ccccc24)NC(=O)[C@H](CCCCN)NC(=O)[C@H](Cc2c[nH]cn2)NC(=O)[C@H]([C@@H](C)O)NC(=O)[C@H](CCCNC(=N)N)NC(=O)[C@H](CO)NC3=O)NC(=O)[C@H](CCCCN)NC(=O)[C@H](CC(=O)O)NC1=O [compound 806] (H-DCLG[Nva]LRKCIPDK(Pent4ynoyl)DKCCRPNLVCSRTHKWCKYVF-NH2; disulfide 2-17, 9-23, 16-30) | 390 nM | 290 nM | 34200 nM
